The source of these data is article PMC2905291, “A phase I study of the safety and pharmacokinetics of the histone deacetylase inhibitor belinostat administered in combination with carboplatin and/or paclitaxel in patients with solid tumours” (British Journal of Cancer, 2010).

Read-outs that look alike come from different tables or passages of the source.

Data set [1] in a line: Carboplatin (platinum by ICP-MS) plasma pharmacokinetics in patients after belinostat and paclitaxel. The data set is classed as in vivo, human. As to conditions: for AUCall / AUCinf / Cl / Cmax / T1/2 / Vss: mean±s.d. On the procedure: (§1) Blood samples for belinostat PK, when administered alone were taken pre-treatment, at the end of infusion and 5 min, 15, 30 min, 1 h, 2, 3 h, 3 h 15 min, 3 h 30 min, 4, 5, 6 h after infusion on days 1 and 3 of cycle 1. Samples for carboplatin or paclitaxel when administered after belinostat, were taken relative to the start of belinostat infusion at 3 h (pre-carboplatin or-paclitaxel), 3 h 15 min, 3 h 30 min, 4, 5 and 6 h in cycle 1 on day 3. In addition, samples were taken for BelCaP when administered together at 6 h 15 min, 6 h 30 min, 7, 8, 9 and 24 h after belinostat on day 3. Belinostat and paclitaxel levels were determined in lithium-heparinised plasma using validated solid-phase extraction high performance liquid chromatograpgy (HPLC)-tandem mass spectrometric detection (MS/MS) methods (Covance, Indianapolis, IN, USA). The lower limit of quantitation was 5 and 10 ng ml^−1 for belinostat and paclitaxel, respectively. Belinostat plasma concentrations were determined at Covance using a validated method involving solid-phase extraction, separation with acetic acid acetonitril gradient on reversed phase C18 silica and MS/MS using penta-deuterated belinostat as the internal standard. Belinostat and the internal standard were detected using negative ion electron spray with the transition from 317 to 143 and 322 to 143 m z^−1, respectively.
Human plasma samples were analysed for Pt from carboplatin by inductively coupled plasma-mass spectrometry after dilution with 0.01% Triton X-100 in 0.1% nitric acid. The samples were analysed without pre-digestion or extraction directly against matrix-matched standard solutions. Intensity, as counts per second from Pt, mass 195, was measured. Terbium, mass 159, was used as an internal standard. The results were calculated from the net intensity ratio of Pt to internal standard. The standard curve range was 2.00–1000 ng Pt ml^−1 in plasma. Samples above the calibration range were diluted using blank human plasma.
(§2) Plasma concentration–time curves of all three analytes were analysed by non-compartmental methods using WinNonlin (version 4.0.1 Pharsight Corp., Cary, NC, USA). For all analytes the AUC was estimated from the start of infusion by the logarithmic-linear trapezoidal rule and extrapolated to infinity using the estimated value of the slope of the terminal logarithmic-linear disposition phase. Analysis was carried out on the non-dose-normalised plasma concentration of carboplatin, as dosing had already been normalised per GFR using Calvert's formula ([Calvert et al, 1989]).

Data set [2] in a line: Paclitaxel plasma pharmacokinetics in patients after belinostat (LC-MS/MS, non-compartmental). The data set is classed as in vivo, human. On the procedure:
as §1
Paclitaxel and the internal standard, cephalomannine, are extracted from human plasma by solid-phase extraction on a cyanopropyl solid-phase extraction cartridge. After eluting with the mobile phase, the eluent is directly analysed using liquid chromatography with MS/MS. The standard curve range for this assay is from 10.0 to 2000 ng ml^−1 for paclitaxel, using a plasma sample volume of 0.250 ml.
as §2

Data set [3] concerns patients with solid tumours. Conditions: ref Munster et al, cited from earlier work; for patients who responded: valproic acid with epirubicin, 2009.
Data set [4] relates to patients with advanced solid malignancies. Further details: method as in Ramalingam et al, 2007a. As to conditions: ref Ramalingam et al, 2007a, cited from earlier work.
The mark [5] stands for this setting: carboplatin equivalents from total platinum, target AUC 5 i.v. day 3 after belinostat 600 mg m^−2 and paclitaxel, 7 patients.
[6] abbreviates: carboplatin equivalents from total platinum, target AUC 5 i.v. day 3 after belinostat 800 mg m^−2 and paclitaxel, 3 patients.
[7] abbreviates: carboplatin equivalents from total platinum, target AUC 5 i.v. day 3 after belinostat 1000 mg m^−2 and paclitaxel, 7 patients.
Where [8] appears, read: carboplatin equivalents, target AUC 5 i.v. day 3, Total Mean over all belinostat dose levels.
The mark [9] stands for this setting: human, plasma, iv, paclitaxel 175 mg m^−2 i.v. day 3 after belinostat 600 mg m^−2, 6 patients, mean±s.d.
Where [10] appears, read: human, plasma, iv, paclitaxel 175 mg m^−2 i.v. day 3 after belinostat 800 mg m^−2, 3 patients, mean±s.d.
Where [11] appears, read: human, plasma, iv, paclitaxel 175 mg m^−2 i.v. day 3 after belinostat 1000 mg m^−2, 7 patients, mean±s.d.
Where [12] appears, read: paclitaxel 175 mg m^−2 i.v. day 3 after belinostat 600 mg m^−2, 6 patients, mean±s.d.
Where [13] appears, read: paclitaxel 175 mg m^−2 i.v. day 3 after belinostat 800 mg m^−2, 3 patients, mean±s.d.
The mark [14] stands for this setting: paclitaxel 175 mg m^−2 i.v. day 3 after belinostat 1000 mg m^−2, 7 patients, mean±s.d.
Setting [15] is: valproic acid combined with epirubicin, 2007.
Setting [16] is: vorinostat with carboplatin and paclitaxel, 25 patients treated.

On to `N.N.O=C([O-])C1(C(=O)[O-])CCC1.[Pt+2]` [carboplatin], for which the “effect of concurrent administration on pharmacokinetics” value in data set [1] (carboplatin after belinostat) is “unaltered”. In data set [1] (setting [5]), the AUCall worked out at 7.8 ± 1.4 mg·min/mL; the AUCinf is 8.8 ± 1.3 mg·min/mL; the Cl was determined as 4.4 ± 0.9 L/h; the Cmax – broadly, the maximum level reached in the sampled fluid or tissue – turned out to be 27400 ± 4000 ng/mL. Besides, in data set [1] (setting [5]), the T1/2 stood at 7.8 ± 2.7 h and the Vss worked out at 34.3 ± 16.1 L. Besides, in data set [1] (setting [6]), the AUCall was found to be 8.9 ± 2.1 mg·min/mL, the AUCinf stood at 9.7 ± 1.9 mg·min/mL, the Cl came out at 4.1 ± 0.5 L/h and the Cmax was 32800 ± 11700 ng/mL. Moreover, in data set [1] (setting [6]), the T1/2 came to 5.4 ± 1.0 h and the Vss turned out to be 21.9 ± 7.6 L. Further, in data set [1] (setting [7]), the AUCall is 8.4 ± 1.0 mg·min/mL, the AUCinf turned out to be 9.3 ± 1.1 mg·min/mL, the Cl turned out to be 3.5 ± 0.8 L/h and the Cmax worked out at 29600 ± 14000 ng/mL. Besides, in data set [1] (setting [7]), the T1/2 came to 6.0 ± 0.8 h and the Vss amounted to 20.4 ± 3.5 L. In data set [1] (setting [8]), the AUCall came to 8.2 ± 1.4 mg·min/mL, the AUCinf was found to be 9.2 ± 1.3 mg·min/mL, the Cl was 3.9 ± 0.8 L/h and the Cmax came out at 29200 ± 1000 ng/mL. In addition, in data set [1] (setting [8]), the T1/2 worked out at 6.6 ± 2.1 h and the Vss was determined as 26.4 ± 12.5 L.
Take `CC(=O)O[C@H]1C(=O)[C@@]2(C)[C@H]([C@H](OC(=O)c3ccccc3)[C@]3(O)C[C@H](OC(=O)[C@H](O)[C@@H](NC(=O)c4ccccc4)c4ccccc4)C(C)=C1C3(C)C)[C@]1(OC(C)=O)CO[C@@H]1C[C@@H]2O` [paclitaxel]: in data set [2] (setting [9]), the AUC (usually concentration integrated over time) was determined as 14 ± 2.5 µM·h; the total exposure AUC(0-inf) (usually total exposure, with the tail of the curve extrapolated) is 14.7 ± 2.6 µM·h; the Cmax was 3.9 ± 0.7 µM; the half-life (usually the time needed for the level to fall by half in the phase considered) is 5.7 ± 0.5 h. In addition, in data set [2] (setting [10]), the AUC is 12.8 ± 1.7 µM·h, the AUC(0-inf) came to 13.3 ± 2 µM·h and the half-life was 5.5 ± 1.1 h. Also, in data set [2] (setting [11]), the AUC was found to be 14.4 ± 3.8 µM·h, the total exposure AUC(0-inf) was found to be 15 ± 4 µM·h and the half-life is 5.5 ± 0.6 h. In data set [2] (setting [12]), the Cl worked out at 14.3±2.2 l h^−1 m^−2 and the Vss is on record as 56.6±21.2 l m^−2. Also, in data set [2] (setting [13]), the Cl came out at 15.7±2.6 l h^−1 m^−2 and the Vss worked out at 53.0±3.0 l m^−2. Besides, in data set [2] (setting [14]), the Cl came to 14.8±4.9 l h^−1 m^−2 and the Vss was 57.2±31.7 l m^−2. Also, the “effect of concurrent administration on pharmacokinetics” value in data set [2] (paclitaxel after belinostat) is listed as “unaltered”.
Consider `CCCC(CCC)C(=O)O` [valproic acid], for which, in data set [3] (setting [15]), the dose-limiting toxicities result is “neurological DLTs” and the “grade II–III QTc prolongation, patients” value was “approximately 25%”. Besides, the patients who responded in data set [3] (of 41 patients with a variety of solid tumours) is listed as 9. Also, the patients who responded in data set [3] (phase II portion, breast cancer) was 64%.
Turning to `O=C(CCCCCCC(=O)Nc1ccccc1)NO` [vorinostat], the “grade III/IV neutropenia, patients” value in data set [4] (vorinostat with carboplatin and paclitaxel at higher dose than present study) is listed as 50%. Further, in data set [4] (setting [16]), the “patients with PR, head and neck cancer” value is recorded as 1; the “patients with PR, non-small-cell lung cancer” value was 10.
